# From patent US20260158002A1, “APPLICATION OF COMPOSITION CONTAINING EDARAVONE AND DEXBORNEOL IN IMPROVING OR TREATING COGNITIVE IMPAIRMENT” (NEURODAWN PHARMACEUTICAL CO., LTD., priority 2021, published 2026)
# Columns and labels:
# ICV-STZ model rats = assay: Morris water maze test in rats of intracerebroventricular STZ-induced dementia; type: in vivo, rat; details: edaravone 6 mg/kg (plus dexborneol 0.8, 1.2 or 2.4 mg/kg), intraperitoneal, once daily
# Description: The experimental animals were divided into […]: sham surgery group, model group, edaravone group (6 mg/kg), edaravone and dexborneol (7.5:1) composition (edaravone 6 mg/kg, dexborneol 0.8 mg/kg), edaravone and dexborneol (5:1) composition (edaravone 6 mg/kg, dexborneol 1.2 mg/kg), and edaravone and dexborneol (2.5:1) composition (edaravone 6 mg/kg, dexborneol 2.4 mg/kg). The animals in the model group and sham surgery groups were given the corresponding volume of blank solvent (8% propylene glycol), all administrations were intraperitoneal injection administrations, and the administration volume is 10 ml/kg.
# In addition to the sham surgery group, animals with successful surgery were randomly assigned to the model group and administration groups in order. […]
# This trial lasted for 4 days. The platform was fixed in the target quadrant (SE quadrant) during the trial, water entry was performed from the water entry points of the four quadrants, respectively, animals were gently placed in the water facing the sign on the pool wall during training, the time (escape latency) for the animal to find the platform was recorded, and then the animal was allowed to stay on the platform for 10 s. […]
# 5×FAD transgenic mice = assay: Brain slice electrophysiology test (hippocampal LTP) in 5×FAD transgenic mice; type: in vivo, mouse; details: brain slices after 16 weeks of administration; edaravone 6 mg/kg or composition 7.5 mg/kg i.p. once daily
# Description: In the experiment, the animals were divided into 4 groups. Administration was performed on the mice in each group from 8 weeks of age. After 16 weeks of continuous daily administration, water maze and Y maze behavioral tests were performed. After the behavioral tests were completed, the animals were sacrificed, and brain slice electrophysiology and AD pathology within the brain were tested, including the test of Aβ plaques, biomarkers such as GFAP and Iba-1, p-Tau, etc.
# Electrophysiological recording was performed after the behavioral test of mice was completed. After anesthesia, all mice were euthanized, the brain tissues were rapidly collected and stored in 4° C. oxygenated (95% O2/5% CO2) artificial cerebrospinal fluid (ACSF) (75 mM sucrose, 87 mM NaCl, 2.5 mM KCl), 1.25 mM NaH2PO4, 21.4 mM NaHCO3, 0.5 mM CaCl2, 7 mM MgCl2 and 20 mM glucose. Hippocampal slices were cut by a vibrating knife in 4° C. oxygenated ACSF, and in 32° C. oxygenated ACSF. Next, the slices were incubated at room temperature for 1 hour before recording. Hippocampal LTP was induced by two theta burst stimulations (TBS). Data acquisition and analysis were performed using Clampex and Clampfit 8.2 (Molecular Devices).
# Data were expressed as Mean±SEM. […]
# [1] = tested on: SH-SY5Y and primary cortical neurons; details: cited from earlier work
# [2] = tested on: rat model in which oligomerized Aβ1-40 is injected into the hippocampal dentate gyrus; details: edaravone 5 mg/kg at the same site with intracerebral Aβ injection; cited from earlier work
# [3] = tested on: mouse model of AlCl3/D-galactose-induced cognitive impairment; details: intraperitoneal for 15 consecutive days; cited from earlier work
# [4] = mice; cited from earlier work
# [5] = tested on: tau P301L transgenic mouse model; details: tau P301L mice aged 9 to 10 months and 21 months; oral with drinking water 24 mg/kg/day for 3 consecutive months; cited from earlier work
smiles,measurement,setting,value
"CC1=NN(c2ccccc2)C(=O)C1 [edaravone, 3-methyl-1-phenyl-2-pyrazolin-5-one]","escape latency in water maze hidden platform trial, vs model group",ICV-STZ model rats,could significantly shorten the escape latency
same,"residence time in the target quadrant in water maze space probe trial, vs model group",ICV-STZ model rats,significantly prolonged
same,"restoration of hippocampal LTP, vs 5×FAD mouse group",5×FAD transgenic mice,no obvious restoration effect
same,neurotoxicity of Aβ1-42,[1],capable of reducing the neurotoxicity of Aβ1-42 to SH-SY5Y and primary cortical neurons
same,spatial learning and memory in water maze,[2],can significantly improve the spatial learning and memory of rats in water maze
same,cognitive function in water maze test and step-down test,[3],significantly improves the cognitive function as tested by water maze test and step-down test
same,oral bioavailability,[4],38%
same,cognitive function in water maze test and novel object recognition test,[5],can significantly improve the cognitive function of the animals in water maze test and novel object recognition test
